Test results from paper PMC9768205, “Pharmacological targeting of the mitochondrial calcium-dependent potassium channel KCa3.1 triggers cell death and reduces tumor growth and metastasis in vivo” (Cell Death & Disease, 2022).

Target: T1, KCa3.1 (Homo sapiens, UniProt O15554)
T1 construct: gene KCNN4
Test: whole-cell perforated patch clamp, block of DC-EBIO/ionomycin-activated current
Type: cell-based

T1 sequence (O15554 whole entry): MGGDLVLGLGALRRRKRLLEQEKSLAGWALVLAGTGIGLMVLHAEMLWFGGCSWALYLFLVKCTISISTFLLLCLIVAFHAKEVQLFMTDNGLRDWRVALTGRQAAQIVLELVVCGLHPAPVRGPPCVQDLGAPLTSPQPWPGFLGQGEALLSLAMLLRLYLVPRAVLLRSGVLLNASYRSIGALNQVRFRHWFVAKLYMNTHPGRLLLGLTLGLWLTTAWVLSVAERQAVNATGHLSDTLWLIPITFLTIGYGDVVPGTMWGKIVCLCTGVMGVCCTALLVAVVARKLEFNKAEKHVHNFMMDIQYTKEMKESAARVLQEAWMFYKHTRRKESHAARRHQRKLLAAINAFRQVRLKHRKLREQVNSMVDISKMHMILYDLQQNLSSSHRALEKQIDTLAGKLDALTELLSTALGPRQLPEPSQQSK

`Clc1ccccc1C(c1ccccc1)(c1ccc(CCC[P+](c2ccccc2)(c2ccccc2)c2ccccc2)cc1)n1cccn1` (stereo not shown) [mitoTRAM-34, (3-(4-((2-chlorophenyl)(phenyl)(1H-pyrazol-1yl)methyl)phenyl)propyl)triphenylphosphonium iodide] showed an IC50 of roughly 2000 nM.
